Reference: patent US20120088774A1, “ACTIVE PHARMACEUTICAL INGREDIENT ADSORBED ON SOLID SUPPORT” (LEK PHARMACEUTICALS D.D., priority 2009, published 2012)

Legend:
[1] = Dissolution of crystalline lovastatin and lovastatin adsorbate in 0.02M hydrochloric acid; assay type: physicochemical
Description: 0.2 g of lovastatin was dissolved in a mixture of 10 ml trichloromethane and 40 ml diisopropyl ether. 2 g of a the SYLOID® AL1 was added to the solution. Subsequently the solvent was removed by evaporation.

[2] = Dissolution of crystalline simvastatin and simvastatin adsorbate in 0.02M hydrochloric acid; assay type: physicochemical
Description: 0.2 g of simvastatin was dissolved in 50 ml of dichloromethane. 2 g of a the SYLOID® AL1 was added to the solution. Subsequently the solvent was removed by evaporation. The sample was analysed using X-ray powder diffraction (XRPD). Using XRPD it was confirmed that the API in the product was amorphous. The use of dichloromethane as the solvent for simvastatin and SYLOID® AL1 as the carrier gives the adsorbate according to the invention.

[3] = Dissolution of crystalline tadalafil, tadalafil adsorbate and precipitates on carriers; assay type: physicochemical; settings: 20 mM phosphate buffer pH 6.9
Description: The carriers comprising tadalafil have been prepared as described in example 1.
0.1 g of tadalafil was dissolved in 20 ml of dichloromethane. 5 ml of the resulting solution was added to 0.25 g of a solid support (Aerosil® 380, Al2O3, MgO, TiO2). Subsequently the solvent was removed by evaporation.

[4] = crystalline solid; term defined as less or equal to 0.1 mg/ml; cited from earlier work

CC[C@H](C)C(=O)O[C@H]1C[C@@H](C)C=C2C=C[C@H](C)[C@H](CC[C@@H]3C[C@@H](O)CC(=O)O3)[C@H]21 [Crystalline lovastatin, lovastatin]
Amount dissolved ([1]; 2 min): 0.298 µg/mL | Amount dissolved ([1]; 5 min): 0.403 µg/mL | Amount dissolved ([1]; 10 min): 0.418 µg/mL | Amount dissolved ([1]; 15 min): 0.501 µg/mL | Amount dissolved ([1]; 25 min): 0.625 µg/mL | Amount dissolved ([1]; 40 min): 0.523 µg/mL | Amount dissolved ([1]; 60 min): 0.62 µg/mL | Amount dissolved ([2]; 2 min): 0.848 µg/mL | Amount dissolved ([2]; 5 min): 1.667 µg/mL | Amount dissolved ([2]; 10 min): 1.853 µg/mL | Amount dissolved ([2]; 15 min): 1.859 µg/mL | Amount dissolved ([2]; 25 min): 2.031 µg/mL | Amount dissolved ([2]; 40 min): 2.145 µg/mL | Amount dissolved ([2]; 60 min): 2.175 µg/mL

CN1CC(=O)N2[C@H](c3ccc4c(c3)OCO4)c3[nH]c4ccccc4c3C[C@@H]2C1=O [Crystalline tadalafil, (6R,12aR)-6-(1,3-Benzodioxol-5-yl)-2,3,6,7,12,12a-hexahydro-2-methyl-pyrazino[1′,2′:1,6]pyrido[3,4-b]indole-1,4-dione]
Amount dissolved ([3]; 2 min): 2.9 µg/mL | Amount dissolved ([3]; 5 min): 14.6 µg/mL | Amount dissolved ([3]; 10 min): 24.2 µg/mL | Amount dissolved ([3]; 15 min): 27.0 µg/mL | Amount dissolved ([3]; 25 min): 32.9 µg/mL | Amount dissolved ([3]; 40 min): 34.4 µg/mL | solubility in water [4]: practically insoluble in water
